In series [1] the target is T1, glycinamide ribotide formyl transferase (FGAR) (Lacticaseibacillus casei, UniProt A0AAN1KEB7).
T1 sequence (A0AAN1KEB7 1-189): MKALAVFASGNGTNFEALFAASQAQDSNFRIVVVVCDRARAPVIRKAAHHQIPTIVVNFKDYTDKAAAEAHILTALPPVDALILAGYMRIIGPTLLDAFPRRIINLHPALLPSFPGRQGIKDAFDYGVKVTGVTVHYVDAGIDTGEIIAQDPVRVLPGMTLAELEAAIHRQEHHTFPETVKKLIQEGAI
Briefly: Enzyme assay for FGAR (glycinamide ribotide formyl transferase) inhibition. Conditions: in words. Type of series: biochemical, Lactobacillus casei. As to the method:
Inhibition of the glycinamide ribotide formyl transferase (FGAR) and amino-imidazole carboxamide ribotide formyl transferase (AICAR) enzymes was determined by the following test procedure.
Lactobacillus casei extract protein (20 μg) is incubated with 45 μmol of Tris-HCl buffer; pH 7.5, 90 μmol of 2-mercaptoethanol, 0.20 μmol of α,β-glycine-amideribotide and 50 nmol of (6R)-10-formyltetrahydrofolate in 0.9 ml for 1 minute at 30° C. The formation of tetrahydrofolate is followed by change in the ultraviolet maximum at 298 nm. For assay of inhibition the test compounds are added along with the 6R-10-formyl FAHy and the concentration that inhibits the reaction by 50% (Ic50) is determined.

Series [2] is described as follows: Cytotoxicity (focus and potency of cytotoxic action). The class given is cell-based. To be noted: in words.
The conditions of series [3]: in words; DeGraw et al; cited from earlier work.
Another series deals with dihydrofolate reductase. Conditions: in words; from prior literature/patents; cited from earlier work.
The subject of the next series is L1210 cells. In words: Growth inhibition assay for L1210 cells. Type of series: cell-based. Conditions: Mus musculus; 72 hours, murine L1210 cells, RPMI 1640 with 10% fetal calf serum. The source says:
Murine L1210 cells were obtained as intraperitoneal ascites suspensions from BD2F1 mice. […] Cultures in the logarithmic stage of growth were harvested, resuspended and exposed to test compounds at varying concentrations. Growth of controls was monitored to verify that the growth pattern was normal.

For the next series, the system named is L1210 leukemia. Conditions: in words, Taylor et al, U.S. Pat. No. 4,684,653, cited from earlier work.
For the next series, the system named is thymidylate synthase. To be noted: in words; J. A. R. Mead et al., Cancer Research (1966); cited from earlier work.

As usually defined, the IC50 is the midpoint of a concentration-inhibition curve.

Like-named read-outs stand apart in the source and are kept apart here.

`Nc1nc2c(c(=O)[nH]1)CC(CCc1ccc(C(=O)N[C@@H](CCC(=O)O)C(=O)O)cc1)CC2` (stereo partly drawn) [5,8, 10-trideaza FH4]: in series [1], the “inhibition of glycinamide ribotide transformylase (GAR transformylase, FGAR)” value was “devoid of enzyme or cytotoxic action”. In series [2], the cytotoxic action result is reported as “devoid of enzyme or cytotoxic action”.

Consider `Nc1nc2ccc(CCc3ccc(C(=O)N[C@@H](CCC(=O)O)C(=O)O)cc3)nc2c(=O)[nH]1` [8,10-dideazafolic acid], for which the antifolate activity entry in series [3] is on record as “active antifolates”. For the same molecule, the “inhibition of dihydrofolate reductase” value in the series on dihydrofolate reductase was “did not significantly affect DHFR”.

Take `Nc1nc2ccc(CNc3ccc(C(=O)N[C@@H](CCC(=O)O)C(=O)O)cc3)nc2c(=O)[nH]1` [8-deazafolic acid]: the “inhibition of dihydrofolate reductase” value with dihydrofolate reductase was “did not significantly affect DHFR”.

With `CN(Cc1cnc2nc(N)nc(N)c2n1)c1ccc(C(=O)N[C@@H](CCC(=O)O)C(=O)O)cc1` [Compound 1, methotrexate], the “inhibition of dihydrofolate reductase” value in the series on dihydrofolate reductase is given as “inhibiting dihydrofolate reductase (DHFR)”. Moreover, in the series on L1210 cells, the half-inhibitory concentration (IC50) is 4.3 nM.

Take `Nc1nc2c(c(=O)[nH]1)CC(CCc1ccc(C(=O)N[C@@H](CCC(=O)O)C(=O)O)cc1)CN2` (stereo partly drawn) [Compound 2, N-(4-[2-(2-amino-4-hydroxy-5,6,7,8-tetrahydropyrido[2,3-d]pyrimidin-6-yl)-ethyl]benzoyl)-L-glutamic acid]: the “inhibition of glycinamide ribotide transformylase (GAR transformylase, FGAR)” value in series [1] (listed as DDTHF) is recorded as “potent inhibitor of GAR transformylase”; in series [1] (listed as Taylor et al compound) it was “clearly an inhibitor of FGAR”. Further, in series [2], the cytotoxic action result is on record as “potent cytotoxin”. The “activity against L1210 leukemia” value in the series on L1210 leukemia (listed as N-(4-[2-(2-amino-4-hydroxy-5,6,7,8-tetrahydropyrido[2,3-d]pyrimidin-6-yl)- e thy) is on record as “good activity against L-1210 leukemia which is comparable to methotrexate”; in the series on L1210 leukemia (listed as N-(4-[2-(2-amino-4-hydroxy-5,6,7,8-tetrahydropyrido[2,3-d]pyrimidin-6-yl)- ethyl), “good activity against L1210 leukemia which is comparable to methotrexate”. In the series on dihydrofolate reductase, the “inhibition of dihydrofolate reductase” value is on record as “weak inhibitor of dihydrofolate reductase”. This molecule also returned an IC50 with L1210 cells of 42 nM.

Turning to `Nc1nc2c(c(=O)[nH]1)NC(CCc1ccc(C(=O)N[C@@H](CCC(=O)O)C(=O)O)cc1)CC2` (stereo partly drawn) [Compound 3, 8,10-Dideaza-5,6,7,8-tetrahydrofolic Acid], the IC50 in the series on L1210 cells worked out at 96.8 nM.

Molecule `CN1c2c(nc(N)[nH]c2=O)CCC1CCc1ccc(C(=O)N[C@@H](CCC(=O)O)C(=O)O)cc1` (stereo partly drawn) [Compound 4, 5-Methyl-8,10-dideaza-5,6,7,8-tetrahydrofolic Acid] came in with a 50% inhibitory concentration (IC50) in the series on L1210 cells of 38.2 nM.

The molecule `Nc1nc2c(c(=O)[nH]1)N(C=O)C(CCc1ccc(C(=O)NC(CCC(=O)O)C(=O)O)cc1)CC2` (stereo not drawn) [Compound 5] had an IC50 in the series on L1210 cells of 657 nM.

For the molecule `Nc1nc2c(c(=O)[nH]1)N[C@@H](CCNc1ccc(C(=O)NC(CCC(=O)O)C(=O)O)cc1)CN2` (stereo partly drawn) [tetrahydrohomofolate], the “inhibition of thymidylate synthetase in vitro” value in the series with thymidylate synthase is on record as “potent inhibitor”.

The record behind these values is patent publication US5167963A, “8,10-dideazatetrahydrofolic acid derivatives” (SRI International, priority 1990, dated 1992).
